Remaining binding data for three compounds are collected here from patent US12479847B2 (DANA-FARBER CANCER INSTITUTE, INC., priority 2019, dated 2025).

Where two headings read alike, the source gives them in different places.

Experiment in all cases: KINOMEscan (ScanMAX) kinase profiling
Common to all, as to format: binding

In test [1] the target is T1, panel of 468 kinases (Homo sapiens, UniProt P00519, T315I).
T1 construct: purchased KINOMEscan (ScanMAX) service
To be noted: 1 μM, read-out: % control.

Test [2] has as its target T2, panel of 468 kinases (Homo sapiens, UniProt P52333).
T2 construct: purchased KINOMEscan (ScanMAX) service
T2 sequence (P52333 1-1124): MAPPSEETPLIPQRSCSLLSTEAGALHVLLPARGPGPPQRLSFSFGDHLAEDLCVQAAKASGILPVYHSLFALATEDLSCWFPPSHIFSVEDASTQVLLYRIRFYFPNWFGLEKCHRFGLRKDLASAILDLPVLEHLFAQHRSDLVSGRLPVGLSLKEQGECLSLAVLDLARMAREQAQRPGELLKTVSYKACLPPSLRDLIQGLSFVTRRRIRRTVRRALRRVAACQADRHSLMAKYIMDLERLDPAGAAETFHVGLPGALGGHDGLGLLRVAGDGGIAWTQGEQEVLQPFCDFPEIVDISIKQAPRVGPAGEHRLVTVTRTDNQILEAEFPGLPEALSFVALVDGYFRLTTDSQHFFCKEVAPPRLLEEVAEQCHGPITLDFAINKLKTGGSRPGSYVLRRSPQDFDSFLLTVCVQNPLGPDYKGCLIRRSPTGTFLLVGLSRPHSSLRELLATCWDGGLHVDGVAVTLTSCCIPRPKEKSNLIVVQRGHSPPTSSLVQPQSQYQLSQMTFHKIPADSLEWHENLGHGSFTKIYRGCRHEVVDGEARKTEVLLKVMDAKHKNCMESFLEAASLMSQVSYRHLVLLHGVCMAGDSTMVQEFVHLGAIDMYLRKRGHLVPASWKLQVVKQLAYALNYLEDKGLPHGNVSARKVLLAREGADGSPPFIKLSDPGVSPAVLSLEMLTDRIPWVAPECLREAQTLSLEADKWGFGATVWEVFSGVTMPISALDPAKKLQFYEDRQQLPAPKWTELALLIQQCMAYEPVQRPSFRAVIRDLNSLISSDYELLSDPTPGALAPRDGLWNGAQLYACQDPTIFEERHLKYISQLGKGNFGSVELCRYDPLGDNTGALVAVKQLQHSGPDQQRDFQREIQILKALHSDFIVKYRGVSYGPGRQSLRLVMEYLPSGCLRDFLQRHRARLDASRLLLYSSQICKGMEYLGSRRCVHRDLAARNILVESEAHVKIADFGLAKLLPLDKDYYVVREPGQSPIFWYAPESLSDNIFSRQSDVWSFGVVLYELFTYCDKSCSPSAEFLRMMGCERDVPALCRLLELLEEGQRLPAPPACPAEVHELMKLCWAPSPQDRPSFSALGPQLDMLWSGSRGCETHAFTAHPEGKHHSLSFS
To be noted: JAK3(JH1domain-catalytic); 1 μM; read-out: % control.

Test [3] concerns the target T3, panel of 468 kinases (Homo sapiens, UniProt Q08345).
T3 construct: purchased KINOMEscan (ScanMAX) service
To be noted: DDR1; 1 μM; read-out: % control.

The target of test [4] is T4, panel of 468 kinases (Homo sapiens, UniProt P10721, A829P).
T4 construct: purchased KINOMEscan (ScanMAX) service
To be noted: KIT(A829P); 1 μM; read-out: % control.

Test [5] deals with T5, panel of 468 kinases (Homo sapiens, UniProt P04626).
T5 construct: purchased KINOMEscan (ScanMAX) service
To be noted: ERBB2; 1 μM; read-out: % control.

Test [6] concerns the target T6, panel of 468 kinases (Homo sapiens, UniProt Q9Y4K4).
T6 construct: purchased KINOMEscan (ScanMAX) service
To be noted: MAP4K5; 1 μM; read-out: % control.

T5 sequence (P04626 23-1255): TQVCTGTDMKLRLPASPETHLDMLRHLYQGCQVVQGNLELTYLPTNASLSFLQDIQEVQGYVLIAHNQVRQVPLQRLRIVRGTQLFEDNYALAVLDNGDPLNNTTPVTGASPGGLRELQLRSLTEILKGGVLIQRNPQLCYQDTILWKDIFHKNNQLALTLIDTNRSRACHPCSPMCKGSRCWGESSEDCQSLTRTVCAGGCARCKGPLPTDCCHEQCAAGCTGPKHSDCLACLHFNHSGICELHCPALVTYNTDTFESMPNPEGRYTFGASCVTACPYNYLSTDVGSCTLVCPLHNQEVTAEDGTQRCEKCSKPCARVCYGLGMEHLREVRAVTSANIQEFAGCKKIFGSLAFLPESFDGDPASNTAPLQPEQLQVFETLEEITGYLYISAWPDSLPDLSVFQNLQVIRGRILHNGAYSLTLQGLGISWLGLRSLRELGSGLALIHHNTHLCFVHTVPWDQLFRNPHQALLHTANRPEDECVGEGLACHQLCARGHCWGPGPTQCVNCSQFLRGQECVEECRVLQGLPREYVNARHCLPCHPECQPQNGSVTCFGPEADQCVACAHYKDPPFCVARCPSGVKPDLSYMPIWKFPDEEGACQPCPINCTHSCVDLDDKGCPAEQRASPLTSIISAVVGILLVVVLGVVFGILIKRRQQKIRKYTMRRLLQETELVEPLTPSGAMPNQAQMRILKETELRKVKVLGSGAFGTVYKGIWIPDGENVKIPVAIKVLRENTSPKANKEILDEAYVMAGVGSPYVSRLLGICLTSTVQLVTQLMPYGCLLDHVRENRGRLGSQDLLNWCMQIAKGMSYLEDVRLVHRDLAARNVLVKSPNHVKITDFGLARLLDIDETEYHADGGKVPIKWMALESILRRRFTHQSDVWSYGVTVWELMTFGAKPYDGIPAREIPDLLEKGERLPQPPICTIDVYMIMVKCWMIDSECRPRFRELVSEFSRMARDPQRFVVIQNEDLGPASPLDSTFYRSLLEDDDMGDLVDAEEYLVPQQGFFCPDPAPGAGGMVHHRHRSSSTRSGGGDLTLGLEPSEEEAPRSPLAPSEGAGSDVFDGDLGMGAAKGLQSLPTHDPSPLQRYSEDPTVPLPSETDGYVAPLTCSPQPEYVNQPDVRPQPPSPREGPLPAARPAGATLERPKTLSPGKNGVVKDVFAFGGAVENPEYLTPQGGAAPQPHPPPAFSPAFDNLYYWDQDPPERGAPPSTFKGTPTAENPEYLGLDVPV
T4 sequence (P10721 26-976 A829P): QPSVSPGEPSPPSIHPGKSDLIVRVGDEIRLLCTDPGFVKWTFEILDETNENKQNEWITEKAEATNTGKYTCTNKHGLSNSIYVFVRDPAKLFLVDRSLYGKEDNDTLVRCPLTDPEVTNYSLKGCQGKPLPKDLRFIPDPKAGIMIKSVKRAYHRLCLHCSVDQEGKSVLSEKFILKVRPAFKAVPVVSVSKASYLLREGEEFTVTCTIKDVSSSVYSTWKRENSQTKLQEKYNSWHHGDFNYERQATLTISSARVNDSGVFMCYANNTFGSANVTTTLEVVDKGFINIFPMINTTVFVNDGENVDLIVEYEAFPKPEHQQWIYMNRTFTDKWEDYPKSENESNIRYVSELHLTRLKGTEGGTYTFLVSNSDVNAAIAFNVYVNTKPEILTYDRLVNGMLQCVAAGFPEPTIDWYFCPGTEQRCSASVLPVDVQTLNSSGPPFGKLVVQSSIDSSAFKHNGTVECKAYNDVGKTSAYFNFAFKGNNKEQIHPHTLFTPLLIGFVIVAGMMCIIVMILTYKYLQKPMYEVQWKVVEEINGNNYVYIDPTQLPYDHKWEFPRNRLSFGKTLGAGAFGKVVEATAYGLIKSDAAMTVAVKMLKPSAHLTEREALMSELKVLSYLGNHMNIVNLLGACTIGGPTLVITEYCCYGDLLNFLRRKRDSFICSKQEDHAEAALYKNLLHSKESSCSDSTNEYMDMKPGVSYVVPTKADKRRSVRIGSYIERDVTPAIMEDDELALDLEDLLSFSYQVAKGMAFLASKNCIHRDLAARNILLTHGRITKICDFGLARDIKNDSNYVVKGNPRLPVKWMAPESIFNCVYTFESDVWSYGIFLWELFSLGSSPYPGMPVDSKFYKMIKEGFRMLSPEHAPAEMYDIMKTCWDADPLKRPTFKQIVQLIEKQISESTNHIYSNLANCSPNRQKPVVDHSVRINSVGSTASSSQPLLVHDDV
T3 sequence (Q08345 19-913): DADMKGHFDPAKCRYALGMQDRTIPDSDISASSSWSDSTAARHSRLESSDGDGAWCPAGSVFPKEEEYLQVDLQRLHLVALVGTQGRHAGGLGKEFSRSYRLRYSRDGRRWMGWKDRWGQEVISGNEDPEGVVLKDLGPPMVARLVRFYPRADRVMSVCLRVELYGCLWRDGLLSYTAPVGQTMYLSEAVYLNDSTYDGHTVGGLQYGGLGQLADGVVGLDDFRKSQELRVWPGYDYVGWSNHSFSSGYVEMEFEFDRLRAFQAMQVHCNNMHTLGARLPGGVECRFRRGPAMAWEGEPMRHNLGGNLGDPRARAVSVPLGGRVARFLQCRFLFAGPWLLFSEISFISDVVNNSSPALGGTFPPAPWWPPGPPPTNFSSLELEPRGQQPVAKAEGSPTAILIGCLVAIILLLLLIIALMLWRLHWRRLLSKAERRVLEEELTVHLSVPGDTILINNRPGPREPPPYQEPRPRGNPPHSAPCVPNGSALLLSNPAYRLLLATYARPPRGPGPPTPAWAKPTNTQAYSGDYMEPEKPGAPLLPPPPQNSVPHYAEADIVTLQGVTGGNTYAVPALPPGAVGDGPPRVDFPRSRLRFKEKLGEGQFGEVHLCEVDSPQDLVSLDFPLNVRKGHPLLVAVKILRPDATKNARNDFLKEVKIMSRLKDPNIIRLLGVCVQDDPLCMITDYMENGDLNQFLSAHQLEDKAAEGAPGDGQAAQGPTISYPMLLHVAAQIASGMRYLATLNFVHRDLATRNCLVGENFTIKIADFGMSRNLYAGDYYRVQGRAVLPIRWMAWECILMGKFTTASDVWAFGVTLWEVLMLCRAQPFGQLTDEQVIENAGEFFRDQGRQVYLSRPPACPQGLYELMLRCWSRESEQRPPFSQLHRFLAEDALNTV
T6 sequence (Q9Y4K4 whole entry): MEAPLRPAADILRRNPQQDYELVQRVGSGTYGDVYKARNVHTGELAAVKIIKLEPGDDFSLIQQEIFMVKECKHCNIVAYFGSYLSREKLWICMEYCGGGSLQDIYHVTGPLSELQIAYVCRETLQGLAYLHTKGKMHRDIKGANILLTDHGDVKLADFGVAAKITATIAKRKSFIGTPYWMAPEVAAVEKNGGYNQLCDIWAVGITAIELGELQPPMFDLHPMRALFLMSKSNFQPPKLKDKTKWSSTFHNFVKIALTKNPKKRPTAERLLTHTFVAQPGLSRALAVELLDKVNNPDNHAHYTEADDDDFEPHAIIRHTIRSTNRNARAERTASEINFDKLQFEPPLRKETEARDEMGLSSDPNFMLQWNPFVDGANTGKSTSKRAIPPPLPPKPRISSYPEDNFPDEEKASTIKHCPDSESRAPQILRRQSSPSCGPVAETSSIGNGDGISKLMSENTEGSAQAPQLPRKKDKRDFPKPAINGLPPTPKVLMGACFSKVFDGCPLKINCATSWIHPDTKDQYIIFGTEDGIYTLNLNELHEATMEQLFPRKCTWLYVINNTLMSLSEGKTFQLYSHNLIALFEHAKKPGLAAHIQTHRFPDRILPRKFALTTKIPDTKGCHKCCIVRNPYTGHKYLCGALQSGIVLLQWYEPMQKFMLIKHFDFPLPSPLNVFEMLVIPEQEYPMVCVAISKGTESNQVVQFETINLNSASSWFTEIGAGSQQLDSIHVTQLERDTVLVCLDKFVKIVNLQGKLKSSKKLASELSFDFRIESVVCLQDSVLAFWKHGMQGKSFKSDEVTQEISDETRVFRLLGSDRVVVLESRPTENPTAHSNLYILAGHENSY

Regarding `CNc1nc(Nc2ccc(S(=O)(=O)N3CCC(N4CCOCC4)CC3)cc2OC)nc2[nH]cc(Cl)c12` [Compound 12, 5-chloro-N2-(2-methoxy-4-((4-morpholinopiperidin-1-yl)sulfonyl)phenyl)-N4-methyl-7H-pyrrolo[2,3-d]pyrimidine-2,4-diamine], the remaining binding at 1 µM in test [1] (ABL1(T315I)-nonphosphorylated) is 94%; in test [1] (ABL1(T315I)-phosphorylated), 100%; in test [2] it was 77%; in test [3], 100%; in test [4], 76%; in test [5], 80%. For the same compound, in test [6], the remaining binding at 1 µM was determined as 100%.
In the case of `CNc1nc(Nc2ccc(P3(=O)CCN(C4CCOCC4)CC3)cc2OC)nc2[nH]cc(Cl)c12` [Compound 77, 4-(4-((5-chloro-4-(methylamino)-7H-pyrrolo[2,3-d]pyrimidin-2-yl)amino)-3-methoxyphenyl)-1-(tetrahydro-2H-pyran-4-yl)-1,4-azaphosphinane 4-oxide], the remaining binding at 1 µM was found to be 99% in test [1] (ABL1(T315I)-nonphosphorylated); 77% in test [1] (ABL1(T315I)-phosphorylated); 86% in test [2]; 100% in test [3]; 78% in test [4]; 99% in test [5]. The remaining binding at 1 µM in test [6] was 100%.
Take `CNc1nc(Nc2ccc(C(=O)N3CCC(N4CCOCC4)CC3)c3c2OCO3)nc2[nH]cc(Cl)c12` [Compound 75, (7-((5-chloro-4-(methylamino)-7H-pyrrolo[2,3-d]pyrimidin-2-yl)amino)benzo[d][1,3]dioxol-4-yl)(4-morpholinopiperidin-1-yl)methanone]: the remaining binding at 1 µM in test [1] (ABL1(T315I)-nonphosphorylated) worked out at 100%; in test [1] (ABL1(T315I)-phosphorylated), 60%; in test [2], 25%; in test [3], 100%; in test [4], 50%; in test [5], 85%. For the same compound, in test [6], the remaining binding at 1 µM amounted to 91%.
